From PMC8795197, “Safety and activity of WX-0593 (Iruplinalkib) in patients with ALK- or ROS1-rearranged advanced non-small cell lung cancer: a phase 1 dose-escalation and dose-expansion trial” (Signal Transduction and Targeted Therapy, 2022)
“Also recorded” adds a separate entry of the source.

Test system: advanced NSCLC patients with ALK or ROS1 rearrangement
Assay: Phase 1 dose-expansion phase: antitumor activity (RECIST 1.1, investigators)
Format: in vivo, human
Conditions: for intracranial objective response rate: Baseline measurable CNS metastasis; for DOR, median (95% CI) / PFS, median (95% CI) / TTP, median (95% CI) / DCR (95% CI) / ORR (95% CI) / PFS, number of events (%): ALK-positive patients
Description: Patients continued treatment until documented disease progression, unacceptable toxicity, withdrawal of consent, the start of a new anticancer treatment, death, loss of follow-up, or end of the study (whichever occurred first). Patients were permitted to continue treatment after progression if they were still experiencing clinical benefit, at the discretion of the investigator. Patients performed imaging evaluation at baseline, with computed tomography or magnetic resonance imaging of the chest, abdomen, pelvis, and brain. In the dose-escalation phase, the first efficacy evaluation was done after 3-week continuous administration of WX-0593 and every 6 weeks thereafter. […] AEs were assessed in all patients throughout this study and graded per the National Cancer Institute Common Terminology Criteria for Adverse Events version 4.03. In the dose-expansion phase, the primary endpoint was ORR assessed by investigators. Other key secondary endpoints included PFS, DCR, time to progression (TTP), DOR, intracranial response, and safety. Additionally, overall survival (OS) was assessed as a prespecified exploratory endpoint. ORR was defined as the proportion of patients who had best overall response, including CR or PR. PFS was calculated from the date of the first dose of WX-0593 to the date of documented disease progression or death (whichever occurred first). DCR was defined as the proportion of patients who had best overall response, including CR, PR, or SD, with a duration of at least 12 weeks. TTP was calculated from the date when the first dose of WX-0593 was given to first documented disease progression. […] OS was calculated from the date when the first dose of WX-0593 was administered to the date of death from any cause. Safety analysis was performed in the SS, which was comprised of all patients treated with one dose of WX-0593 and with safety data recorded. Efficacy analysis was performed in the FAS, which was defined as all patients treated with at least one dose of WX-0593. The PK analysis set included all patients treated with at least one dose of WX-0593 and with at least one evaluable PK sample. […] Descriptive statistics were carried out to summarize patients’ baseline characteristics and safety. […] All time-to-event data (PFS, TTP, DOR, and OS) and their corresponding 95% CIs were estimated by Kaplan–Meier methods. PK parameter analyses were done with Phoenix WinNonlin version 8.0. All other statistical analyses were conducted using SAS version 9.4.

[1] = ALK-rearranged, crizotinib as the only ALK TKI

## COc1cc(N2CCC3(CCN(C)CC3)CC2)ccc1Nc1ncc(Cl)c(Nc2ccccc2P(C)(C)=O)n1 [WX-0593]
120mg, ALK-rearranged patients
  objective response rate: 53.2% (25/47, 38.1-67.9%)
120mg, ALK-rearranged patients, ALK TKI naive
  objective response rate: 76.5% (13/17, 50.1-93.2%)
120mg, ALK-rearranged patients, ALK TKI naive, chemotherapy naïve
  objective response rate: 75.0%(6/8, 34.9-96.8%)
120mg, ALK-rearranged patients, ALK TKI naive, received chemotherapy before
  objective response rate: 77.8% (7/9, 40.0-97.2%)
120mg, ALK-rearranged patients, Crizotinib and other ALK TKIs
  objective response rate: 0 (0/2, 0-84.2%)
120mg, ALK-rearranged patients, Crizotinib only
  objective response rate: 44.4% (12/27, 25.5-64.7%)
120mg, ALK-rearranged patients, Other ALK TKIs
  objective response rate: 0 (0/1, 0-97.5%)
120mg, Baseline CNS metastasis
  objective response rate: 22.9% (8/35, 10.4-40.1%)
120mg, Baseline CNS metastasis, ALK TKI naive
  objective response rate: 23.1% (3/13, 5.0-53.8%)
120mg, Baseline CNS metastasis, Crizotinib only
  objective response rate: 25.0% (5/20, 8.7-49.1%)
120mg, Baseline CNS metastasis, Radiotherapy before
  objective response rate: 16.7% (2/12, 2.1-48.4%)
120mg, Baseline CNS metastasis, Radiotherapy naïve
  objective response rate: 26.1% (6/23, 10.2-48.4%)
120mg
  intracranial objective response rate: 45.5% (2/11, 16.7-76.6%)
120mg, ALK TKI naive
  intracranial objective response rate: 33.3% (1/3, 0.8-90.6%)
120mg, Crizotinib only
  intracranial objective response rate: 50.0% (4/8, 15.7-84.3%)
120mg, Radiotherapy before
  intracranial objective response rate: 28.6% (2/7, 3.7-71.0%)
120mg, Radiotherapy naïve
  intracranial objective response rate: 75.0% (3/4, 19.4-99.4%)
120mg, Prior ALK TKI treatment: Crizotinib and other ALK TKI
  objective response rate: 0 (0/2, 0-84.2%)
120mg, Prior ALK TKI treatment: Crizotinib only
  objective response rate: 41.4% (12/29, 23.5-61.1%)
120mg, ROS1-rearranged patients
  objective response rate: 0 (0/3, 0-70.8%)
120mg, ROS1-rearranged patients, Crizotinib naive
  objective response rate: 0 (0/1, 0-97.5%)
120mg, ROS1-rearranged patients, Received Crizotinib before
  objective response rate: 0 (0/2, 0-84.2%)
120mg, dose expansion phase, Prior ALK TKI treatment: ALK TKI naive
  objective response rate: 72.2% (13/18, 46.5-90.3%)
180mg, ALK-rearranged patients
  objective response rate: 63.6% (28/44, 47.8-77.6%)
180mg, ALK-rearranged patients, ALK TKI naive
  objective response rate: 76.2% (16/21, 52.8-91.8%)
180mg, ALK-rearranged patients, ALK TKI naive, chemotherapy naïve
  objective response rate: 91.7% (11/12, 61.5-99.8%)
180mg, ALK-rearranged patients, ALK TKI naive, received chemotherapy before
  objective response rate: 55.6% (5/9, 21.2-86.3%)
180mg, ALK-rearranged patients, Crizotinib and other ALK TKIs
  objective response rate: 66.7% (2/3, 9.4-99.2%)
180mg, ALK-rearranged patients, Crizotinib only
  objective response rate: 47.4% (9/19, 24.4-71.1%)
180mg, ALK-rearranged patients, Other ALK TKIs
  objective response rate: 100% (1/1, 2.5-100.0%)
180mg, Baseline CNS metastasis, ALK TKI naive
  objective response rate: 28.6% (2/7, 3.7-71.0%)
180mg, Baseline CNS metastasis, Crizotinib only
  objective response rate: 15.4% (2/13, 1.9-45.4%)
180mg, Baseline CNS metastasis, Radiotherapy before
  objective response rate: 0 (0/7, 0-41.0%)
180mg, Baseline CNS metastasis, Radiotherapy naïve
  objective response rate: 31.3% (5/16, 11.0-58.7%)
180mg
  intracranial objective response rate: 50.0% (2/4, 6.8-93.2%)
180mg, ALK TKI naive
  intracranial objective response rate: 100% (1/1, 2.5-100%)
180mg, Crizotinib only
  intracranial objective response rate: 50.0% (1/2, 1.3-98.7%)
180mg, Radiotherapy naïve
  intracranial objective response rate: 31.3% (5/16, 11.0-58.7%)
180mg, Prior ALK TKI treatment: Crizotinib and other ALK TKI
  objective response rate: 66.7% (2/3, 9.4-99.2%)
180mg, Prior ALK TKI treatment: Crizotinib only
  objective response rate: 42.9% (9/21, 21.8-66.0%)
180mg, ROS1-rearranged patients
  objective response rate: 66.7% (4/6, 22.3-95.7%)
180mg, ROS1-rearranged patients, Crizotinib naive
  objective response rate: 100% (4/4, 39.8-100%)
180mg, ROS1-rearranged patients, Received Crizotinib before
  objective response rate: 0 (0/2, 0-84.2%)
180mg, dose expansion phase, Prior ALK TKI treatment: ALK TKI naive
  objective response rate: 79.2% (19/24, 57.8-92.9%)
ALK TKI naive
  DCR: 92.9%
  ORR: 76.2%
  median PFS: not reached
120 mg
  DOR, median (95% CI): NR (5.52, NR)
  PFS, median (95% CI): NR (6.87, NR)
  TTP, median (95% CI): NR (6.87, NR)
120 mg (n=47)
  DCR (95% CI): 83.0% (69.2%, 92.4%)
  ORR (95% CI): 53.2% (38.1%, 67.9%)
  PFS, number of events (%): 12 (25.5%)
180 mg
  DOR, median (95% CI): NR (5.49, NR)
  PFS, median (95% CI): NR (NR, NR)
  TTP, median (95% CI): NR (NR, NR)
180 mg (n=44)
  DCR (95% CI): 88.6% (75.4%, 96.2%)
  ORR (95% CI): 63.6% (47.8%, 77.6%)
  PFS, number of events (%): 8 (18.2%)
total
  DOR, median (95% CI): NR (5.65, NR)
  PFS, median (95% CI): not reached (95% CI 6.93 months to NR); also recorded: NR (6.93, NR)
  TTP, median (95% CI): NR (6.93, NR)
Total (n=91)
  PFS, number of events (%): 20 (22.0%)
ALK-rearranged patients (n = 91)
  patients who achieved SD: Twenty-five
ALK-rearranged, ALK TKI naive
  ORR: 76.3%
ALK-rearranged, ALK TKI naive, chemotherapy-naive
  ORR: 85.0%
ALK-rearranged, ALK TKI naive, received chemotherapy
  ORR: 66.7%
[1]
  ORR: 45.7%
  median PFS: 6.9 months
FAS n = 99
  patients who achieved PR, n (%): 56 (56.6%)
  patients with progressive disease, n (%): 8 (8.1%)
  patients with stable disease (SD), n (%): 27 (27.3%)
